These results are taken from patent US9365522B2, “Pyrazole amide derivative” (AMGEN INC., priority 2015, dated 2016).

The assay deals with T1, ligand binding domain of human ROR gamma (Homo sapiens, UniProt P51449).
T1 construct: NM_001001523; expressed in transfected cells; host or cells: HEK293T
T1 sequence (P51449 247-497 isoform P51449-2): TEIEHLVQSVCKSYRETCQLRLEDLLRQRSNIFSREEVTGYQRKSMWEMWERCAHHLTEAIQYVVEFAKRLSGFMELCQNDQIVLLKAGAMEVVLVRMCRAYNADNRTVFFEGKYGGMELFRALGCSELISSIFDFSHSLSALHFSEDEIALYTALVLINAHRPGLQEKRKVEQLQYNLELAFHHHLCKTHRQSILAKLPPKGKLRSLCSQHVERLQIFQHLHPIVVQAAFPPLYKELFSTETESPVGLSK
Put plainly: ROR gamma reporter gene assay (GAL4-RORγ LBD luciferase, Dual-Glo). The assay is classed as cell-based. The note with it: HEK293T cells transfected with pM-ROR gamma, 8 concentrations 3.5 nM to 10.5 μM, 24 h incubation; read-out: result (pIC50, inhibition of RORγ transcriptional activity) (converted). The procedure, abridged:
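HEK293T cells were co-transfected with GAL4 DBD fused to human RORγ LBD (aa 247-497), a 5×UAS firefly luciferase reporter and CMV-driven renilla luciferase, in medium with 10% charcoal-stripped FBS.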
On the technique in general: In a reporter assay the amount or activity of a reporter protein is the signal.
In the case of `CC(C)c1c(C(=O)N(CC(=O)c2c(Cl)cncc2Cl)Cc2cc(F)cc(F)c2)cnn1[C@H]1CC[C@H](C(=O)O)CC1` [Example 162, trans-4-(4-((2-(3,5-dichloropyridin-4-yl)-2-oxoethyl)-((3,5-difluorophenyl)methyl)carbamoyl)-5-propan-2-ylpyrazol-1-yl)cyclohexane-1-carboxylic acid], the IC50 was 1.02e+06 pM.

`NCc1c(C(=O)N(CC(=O)c2c(Cl)cncc2Cl)Cc2cc(F)cc(F)c2)cnn1[C@H]1CC[C@H](C(=O)O)CC1` [Example 163, trans-4-(5-(aminomethyl)-4-((2-(3,5-dichloropyridin-4-yl)-2-oxoethyl)-((3,5-difluorophenyl)methyl)carbamoyl)pyrazol-1-yl)cyclohexane-1-carboxylic acid]: the IC50 is over 1e+07 pM.

As to `Cc1c(C(=O)N(CC(=O)c2c(Cl)cncc2Cl)Cc2cc(F)cc(F)c2)cnn1[C@H]1CC[C@H](C(=O)O)CC1` [Example 164, trans-4-(4-((2-(3,5-dichloropyridin-4-yl)-2-oxoethyl)-((3,5-difluorophenyl)methyl)carbamoyl)-5-methylpyrazol-1-yl)cyclohexane-1-carboxylic acid], the IC50 was 1.17e+06 pM.

`O=C(CN(Cc1nc(Cl)cs1)C(=O)c1cnn([C@H]2CC[C@H](C(=O)O)CC2)c1C(F)(F)F)c1c(Cl)cncc1Cl` [Example 165, trans-4-(4-((4-chloro-1,3-thiazol-2-yl)methyl-(2-(3,5-dichloropyridin-4-yl)-2-oxoethyl)carbamoyl)-5-(trifluoromethyl)pyrazol-1-yl)cyclohexane-1-carboxylic acid]: the IC50 was 1.17e+06 pM.

Turning to `O=C(CN(Cc1ccc(F)cc1)C(=O)c1cnn(C23CCC(C(=O)O)(CC2)CC3)c1C(F)(F)F)c1c(Cl)cncc1Cl` [Example 166, 4-(4-((2-(3,5-dichloropyridin-4-yl)-2-oxoethyl)-((4-fluorophenyl)methyl)carbamoyl)-5-(trifluoromethyl)pyrazol-1-yl)bicyclo[2.2.2]octane-1-carboxylic acid], the IC50 is 15500 pM.

With `O=C(CN(Cc1csc(Cl)n1)C(=O)c1cnn([C@H]2CC[C@H](C(=O)O)CC2)c1C(F)(F)F)c1c(Cl)cncc1Cl` [Example 167, trans-4-(4-((2-chloro-1,3-thiazol-4-yl)methyl-(2-(3,5-dichloropyridin-4-yl)-2-oxoethyl)carbamoyl)-5-(trifluoromethyl)pyrazol-1-yl)cyclohexane-1-carboxylic acid], the IC50 was 331000 pM.

As for `O=C(CN(Cc1ncc(Cl)s1)C(=O)c1cnn([C@H]2CC[C@H](C(=O)O)CC2)c1C(F)(F)F)c1c(Cl)cncc1Cl` [Example 168, trans-4-(4-((5-chloro-1,3-thiazol-2-yl)methyl-(2-(3,5-dichloropyridin-4-yl)-2-oxoethyl)carbamoyl)-5-(trifluoromethyl)pyrazol-1-yl)cyclohexane-1-carboxylic acid], the IC50 was 148000 pM.

For the molecule `CC1(C)CCC(N(CC(=O)c2c(Cl)cncc2Cl)C(=O)c2cnn([C@H]3CC[C@H](C(=O)O)CC3)c2C(F)(F)F)CC1` [Example 169, trans-4-(4-((2-(3,5-dichloropyridin-4-yl)-2-oxoethyl)-(4,4-dimethylcyclohexyl)carbamoyl)-5-(trifluoromethyl)pyrazol-1-yl)cyclohexane-1-carboxylic acid], the IC50 was 40700 pM.

For `N#Cc1cccc(CN(CC(=O)c2c(Cl)cncc2Cl)C(=O)c2cnn([C@H]3CC[C@H](C(=O)O)CC3)c2C(F)(F)F)c1` [Example 170, trans-4-(4-((3-cyanophenyl)methyl-(2-(3,5-dichloropyridin-4-yl)-2-oxoethyl)carbamoyl)-5-(trifluoromethyl)pyrazol-1-yl)cyclohexane-1-carboxylic acid], the IC50 was 178000 pM.

For the molecule `N#Cc1ccc(CN(CC(=O)c2c(Cl)cncc2Cl)C(=O)c2cnn([C@H]3CC[C@H](C(=O)O)CC3)c2C(F)(F)F)cc1` [Example 171, trans-4-(4-((4-cyanophenyl)methyl-(2-(3,5-dichloropyridin-4-yl)-2-oxoethyl)carbamoyl)-5-(trifluoromethyl)pyrazol-1-yl)cyclohexane-1-carboxylic acid], the IC50 was 166000 pM.

Turning to `CC(=O)N1CC(N(CC(=O)c2c(Cl)cncc2Cl)C(=O)c2cnn([C@H]3CC[C@H](C(=O)O)CC3)c2C(F)(F)F)C1` [Example 172, trans-4-(4-((1-acetylazetidin-3-yl)-(2-(3,5-dichloropyridin-4-yl)-2-oxoethyl)carbamoyl)-5-(trifluoromethyl)pyrazol-1-yl)cyclohexane-1-carboxylic acid], the IC50 was over 1e+07 pM.

In the case of `CC(C)(C)C(=O)N1CC(N(CC(=O)c2c(Cl)cncc2Cl)C(=O)c2cnn([C@H]3CC[C@H](C(=O)O)CC3)c2C(F)(F)F)C1` [Example 173, trans-4-(4-((2-(3,5-dichloropyridin-4-yl)-2-oxoethyl)-(1-(2,2-dimethylpropanoyl)azetidin-3-yl)carbamoyl)-5-(trifluoromethyl)pyrazol-1-yl)cyclohexane-1-carboxylic acid], the IC50 was over 1e+07 pM.

As to `O=C(CN(C(=O)c1cnn([C@H]2CC[C@H](C(=O)O)CC2)c1C(F)(F)F)C1CCCCC1)c1c(Cl)cncc1Cl` [Example 174, trans-4-(4-(cyclohexyl-(2-(3,5-dichloropyridin-4-yl)-2-oxoethyl)carbamoyl)-5-(trifluoromethyl)pyrazol-1-yl)cyclohexane-1-carboxylic acid], the IC50 was 661000 pM.

For `O=C(CN(C(=O)c1cnn([C@H]2CC[C@H](C(=O)O)CC2)c1C(F)(F)F)C1CCC(F)(F)CC1)c1c(Cl)cncc1Cl` [Example 175, trans-4-(4-((2-(3,5-dichloropyridin-4-yl)-2-oxoethyl)-(4,4-difluorocyclohexyl)carbamoyl)-5-(trifluoromethyl)pyrazol-1-yl)cyclohexane-1-carboxylic acid], the IC50 was 603000 pM.

Consider `CC(C)(C)O[C@H]1C[C@H](N(CC(=O)c2c(Cl)cncc2Cl)C(=O)c2cnn([C@H]3CC[C@H](C(=O)O)CC3)c2C(F)(F)F)C1` [Example 176, trans-4-(4-((2-(3,5-dichloropyridin-4-yl)-2-oxoethyl)-(3-((2-methylpropan-2-yl)oxy)cyclobutyl)carbamoyl)-5-(trifluoromethyl)pyrazol-1-yl)cyclohexane-1-carboxylic acid], for which the IC50 was 2.57e+06 pM.

`O=C(CN(Cc1ccc(F)cc1)C(=O)c1cnn(C23CCC(C(=O)O)(CC2)C3)c1C(F)(F)F)c1c(Cl)cncc1Cl` [Example 177, 4-(4-((2-(3,5-dichloropyridin-4-yl)-2-oxoethyl)-((4-fluorophenyl)methyl)carbamoyl)-5-(trifluoromethyl)pyrazol-1-yl)bicyclo[2.2.1]heptane-1-carboxylic acid]: the IC50 was 141000 pM.

As for `C[C@]1(C(=O)O)CC[C@H](n2ncc(C(=O)N(CC(=O)c3c(Cl)cncc3Cl)Cc3cc(F)cc(F)c3)c2C(F)F)CC1` [Example 178, trans-4-(4-((2-(3,5-dichloropyridin-4-yl)-2-oxoethyl)-((3,5-difluorophenyl)methyl)carbamoyl)-5-(difluoromethyl)pyrazol-1-yl)-1-methylcyclohexane-1-carboxylic acid], the IC50 is 4.37e+06 pM.

As for `O=C(CN(Cc1cc(F)cc(F)c1)C(=O)c1cnn([C@H]2CC[C@H](C(=O)O)CC2)c1C(F)(F)F)c1c(F)cc(F)cc1Cl` [Example 179, trans-4-(4-((2-(2-chloro-4,6-difluorophenyl)-2-oxoethyl)-((3,5-difluorophenyl)methyl)carbamoyl)-5-(trifluoromethyl)pyrazol-1-yl)cyclohexane-1-carboxylic acid], the IC50 was 52500 pM.

Take `O=C(CN(C(=O)c1cnn([C@H]2CC[C@H](C(=O)O)CC2)c1C(F)(F)F)C1Cc2ccccc2C1)c1c(Cl)cncc1Cl` [Example 180, trans-4-(4-((2-(3,5-dichloropyridin-4-yl)-2-oxoethyl)-(2,3-dihydro-1H-inden-2-yl)carbamoyl)-5-(trifluoromethyl)pyrazol-1-yl)cyclohexane-1-carboxylic acid]: the IC50 is 112000 pM.

As to `O=C(CN(C(=O)c1cnn([C@H]2CC[C@H](C(=O)O)CC2)c1C(F)(F)F)C1CCOCC1)c1c(Cl)cncc1Cl` [Example 181, trans-4-(4-((2-(3,5-dichloropyridin-4-yl)-2-oxoethyl)-(oxan-4-yl)carbamoyl)-5-(trifluoromethyl)pyrazol-1-yl)cyclohexane-1-carboxylic acid], the IC50 was over 1e+07 pM.

Turning to `O=C(CN(C(=O)c1cnn([C@H]2CC[C@H](C(=O)O)CC2)c1C(F)(F)F)C1CCC2(CC1)CC2)c1c(Cl)cncc1Cl` [Example 182, trans-4-(4-((2-(3,5-dichloropyridin-4-yl)-2-oxoethyl)-spiro[2,5]octan-6-ylcarbamoyl)-5-(trifluoromethyl)pyrazol-1-yl)cyclohexane-1-carboxylic acid], the IC50 was 66100 pM.

As to `CC1(C)CC[C@H](N(CC(=O)c2c(Cl)cncc2Cl)C(=O)c2cnn([C@H]3CC[C@H](C(=O)O)CC3)c2C(F)(F)F)C1` [Example 183, trans-4-(4-((2-(3,5-dichloropyridin-4-yl)-2-oxoethyl)-((1S)-3,3-dimethylcyclopentyl)carbamoyl)-5-(trifluoromethyl)pyrazol-1-yl)cyclohexane-1-carboxylic acid], the IC50 was 174000 pM.
